Experimental data reported in patent EP2571508B1, “PROCESS FOR PRODUCING A SHRIMP HYDROLYSATE USING ELECTRODIALYSIS” (Marealis AS, priority 2010, dated 2011).
Peptide text beside a SMILES is read from it.

Each molecule was assayed against T1, ACE (Oryctolagus cuniculus, UniProt P12822) (assay: ACE-inhibitory activity, Cushman and Cheung method (hippuric acid from HHL)). Conditions: synthesized peptides.
T1 construct: purchased Sigma A 6778
T1 sequence (P12822 34-1310): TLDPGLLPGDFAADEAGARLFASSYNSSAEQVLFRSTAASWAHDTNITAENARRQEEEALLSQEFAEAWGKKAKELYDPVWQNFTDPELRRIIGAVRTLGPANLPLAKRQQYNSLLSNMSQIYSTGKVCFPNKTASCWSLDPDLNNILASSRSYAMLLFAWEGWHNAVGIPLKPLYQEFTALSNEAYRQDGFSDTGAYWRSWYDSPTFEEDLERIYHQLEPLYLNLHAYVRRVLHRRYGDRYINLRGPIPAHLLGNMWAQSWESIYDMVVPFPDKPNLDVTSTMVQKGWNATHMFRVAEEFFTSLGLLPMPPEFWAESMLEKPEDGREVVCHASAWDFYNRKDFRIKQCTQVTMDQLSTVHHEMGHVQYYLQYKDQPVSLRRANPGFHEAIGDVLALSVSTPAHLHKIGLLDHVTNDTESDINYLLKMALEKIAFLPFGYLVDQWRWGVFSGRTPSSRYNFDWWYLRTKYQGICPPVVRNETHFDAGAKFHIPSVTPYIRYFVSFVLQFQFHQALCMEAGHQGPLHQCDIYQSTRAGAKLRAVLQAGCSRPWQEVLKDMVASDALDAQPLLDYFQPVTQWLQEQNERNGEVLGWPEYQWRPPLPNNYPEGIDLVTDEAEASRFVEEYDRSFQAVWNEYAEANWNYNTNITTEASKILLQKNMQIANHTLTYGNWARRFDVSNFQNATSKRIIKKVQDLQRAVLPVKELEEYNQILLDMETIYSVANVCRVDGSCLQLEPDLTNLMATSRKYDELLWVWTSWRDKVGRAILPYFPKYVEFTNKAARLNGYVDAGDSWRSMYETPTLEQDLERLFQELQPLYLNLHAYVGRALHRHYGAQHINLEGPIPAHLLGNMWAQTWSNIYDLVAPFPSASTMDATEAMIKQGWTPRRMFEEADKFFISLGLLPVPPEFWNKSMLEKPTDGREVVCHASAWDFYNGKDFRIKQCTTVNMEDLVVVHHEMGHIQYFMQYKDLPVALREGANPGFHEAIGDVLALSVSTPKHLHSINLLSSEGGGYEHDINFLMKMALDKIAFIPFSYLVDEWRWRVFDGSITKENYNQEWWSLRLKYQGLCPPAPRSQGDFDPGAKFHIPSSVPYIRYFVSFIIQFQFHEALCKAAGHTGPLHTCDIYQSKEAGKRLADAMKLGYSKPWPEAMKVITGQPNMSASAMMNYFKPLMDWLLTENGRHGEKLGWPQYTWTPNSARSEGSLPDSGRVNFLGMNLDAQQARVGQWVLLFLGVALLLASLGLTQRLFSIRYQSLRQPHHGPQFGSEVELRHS
Assay type: biochemical
Description: The hydrolysate of the present invention has ACE-inhibitory activity. ACE-inhibitory activity may be assayed using known methods, for example based on the method reported by Cushman and Cheung (1971) by measuring the end product hippuric acid (HA) from the enzymatic reaction between ACE (Sigma A 6778) and the substrate HHL (Sigma H 1635). (CUSHMAN, D. W. & CHEUNG, H. S. (1971). Concentrations of Angiotensin-Converting Enzyme in Tissues of Rat. Biochimica Et Biophysica Acta 250(1), 261-265). A different suitable assay is disclosed by Vermeirssen et al. (2002), J. Biochem Biophys. Methods 51 (2002), pages 75-87. Briefly, this is a spectrophotometric method in which ACE inhibition is measured using the substrate furanacryloyl-Phe-Gly-Gly and rabbit lung acetone extract as the ACE source. The IC50 may be determined.
The peptide composition of the RP-HPLC fractions was analysed using LCMS (liquid chromatography mass spectrometry) and individual peptides were sequenced using LC-MS/MS (liquid chromatography - tandem mass spectrometry). Peptides having the sequences identified by LC-MS/MS were then synthesized and analysed. Molecular weight and pl were calculated by ExPASy Proteomics Server. ACE-inhibitory activity was determined based on the Cushman and Cheung method mentioned elsewhere herein and expressed as the IC50 (concentration that inhibits 50% of enzyme activity).

| SMILES | IC50 [µM] |
| --- | --- |
| CC(C)C[C@H](NC(=O)[C@H](C)N)C(=O)N1CCC[C@H]1C(=O)N[C@@H](Cc1c[nH]cn1)C(=O)O [ALPH] (H-ALPH-OH) | > 300 |
| CC(C)C[C@H](NC(=O)[C@@H](N)Cc1ccccc1)C(=O)O [FL] (H-Phe-Leu-OH) | 380 |
| CC(C)C[C@H](NC(=O)[C@@H](N)CCCCN)C(=O)N1CCC[C@H]1C(=O)O [KLP] (H-Lys-Leu-Pro-OH) | 200 |
| CC(C)C[C@H](N)C(=O)N[C@@H](Cc1ccccc1)C(=O)O [LF] (H-Leu-Phe-OH) | 460 |
| CC(C)C[C@H](NC(=O)[C@H](CC(C)C)NC(=O)[C@@H](N)CC(C)C)C(=O)N[C@@H](CCCCN)C(=O)O [LLLK] (H-LLLK-OH) | > 300 |
| CC(C)C[C@H](NC(=O)[C@@H](N)CC(C)C)C(=O)N[C@H](C(=O)N[C@@H](CCCCN)C(=O)O)[C@@H](C)O [LLTK] (H-LLTK-OH) | > 300 |
| CC(C)C[C@H](N)C(=O)N[C@@H](CC(N)=O)C(=O)N[C@@H](C)C(=O)O [LNA*] (H-Leu-Asn-Ala-OH) | 200 |
| CC(C)C[C@H](N)C(=O)N[C@@H](CC(N)=O)C(=O)N1CCC[C@H]1C(=O)N[C@@H](CCCCN)C(=O)O [LNPK] (H-LNPK-OH) | > 300 |
| CC(C)C[C@H](N)C(=O)N[C@H](C(=O)N[C@@H](C)C(=O)N[C@@H](Cc1c[nH]cn1)C(=O)O)C(C)C [LVAH] (H-LVAH-OH) | > 300 |
| CC(C)C[C@H](N)C(=O)N[C@H](C(=O)N[C@@H](C)C(=O)N[C@@H](CCCCN)C(=O)O)C(C)C [LVAK] (H-LVAK-OH) | > 300 |
| CC(C)C[C@H](N)C(=O)N[C@H](C(=O)N[C@@H](CCCCN)C(=O)O)C(C)C [LVK] (H-Leu-Val-Lys-OH) | 225 |
| CC(C)C[C@H](N)C(=O)N[C@@H](Cc1ccc(O)cc1)C(=O)N[C@@H](CCCCN)C(=O)O [LYK] (H-Leu-Tyr-Lys-OH) | 250 |
| NCCCC[C@H](NC(=O)[C@@H]1CCCN1C(=O)[C@@H](N)CC(N)=O)C(=O)O [NPK*] (H-Asn-Pro-Lys-OH) | > 300 |
| CC(C)[C@H](NC(=O)[C@@H](N)CC(N)=O)C(=O)N[C@@H](Cc1ccc(O)cc1)C(=O)O [NVY] (H-Asn-Val-Tyr-OH) | > 300 |
| CC(C)C[C@H](NC(=O)[C@@H](N)C(C)C)C(=O)N[C@@H](C)C(=O)N[C@@H](Cc1c[nH]cn1)C(=O)O [VLAH*] (H-VLAH-OH) | > 300 |
